Drawing on PubChem BioAssay (NCI), this text covers TGI and GI50 for 8 compounds.

Test systems include A498 renal; A549 NSCLC; HCC-2998 colon; NCI-H226 lung; NCI-H23 lung; NCI-H522 lung; OVCAR-4 ovarian; OVCAR-8 ovarian; U251 CNS; UACC-62 melanoma.
Test in all cases: NCI tumour cell line growth inhibition, 48 h

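Briefly, cells in 96-well plates were exposed to five compound concentrations for 48 h, and endpoints were estimated by linear interpolation. Here, GI50 denotes the concentration required for 50% inhibition of growth. At the TGI there is no net growth.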

On to `CCCCCCCCCCSS(=O)(=O)c1ccc(C)cc1`, for which the TGI worked out at 35 µM in the test on A498 renal; 29.8 µM in the test on A549 NSCLC; 39.3 µM in the test with HCC-2998 colon; 37.3 µM in the test on NCI-H226 lung; 35.4 µM with NCI-H23 lung; 17.2 µM with NCI-H522 lung. The TGI in the test on OVCAR-4 ovarian is 32 µM; in the test on OVCAR-8 ovarian it was 32.2 µM; with U251 CNS, 14.3 µM; in the test with UACC-62 melanoma, 16.1 µM.

In the case of `CCOc1ccc2c(-c3ccnc(Nc4cccc(C(F)(F)F)c4)n3)cnn2n1`, the GI50 with A498 renal is 8.2 µM; in the test with A549 NSCLC it was 4.4 µM; in the test with HCC-2998 colon, 22.4 µM; in the test on NCI-H226 lung, greater than 25 µM; with NCI-H23 lung it was 6.97 µM; with NCI-H522 lung, 6.33 µM. The GI50 was 9.46 µM in the test with OVCAR-4 ovarian, 5.44 µM in the test on OVCAR-8 ovarian, 6.43 µM with U251 CNS and 11.5 µM in the test on UACC-62 melanoma. The TGI with A498 renal is greater than 25 µM; in the test on A549 NSCLC, 9.19 µM; with HCC-2998 colon, greater than 25 µM; in the test with NCI-H226 lung, greater than 25 µM; with NCI-H23 lung, greater than 20 µM; in the test with NCI-H522 lung, greater than 23.1 µM. Further, the TGI in the test with OVCAR-4 ovarian was greater than 25 µM; in the test on OVCAR-8 ovarian, 11.7 µM; with U251 CNS it was greater than 22.5 µM; with UACC-62 melanoma it was greater than 25 µM.

Consider `O=C1c2ccccc2C(=O)N1C/C=N/NS(=O)(=O)c1ccc(Cl)cc1`, for which the TGI with A498 renal, in the test with A549 NSCLC, with HCC-2998 colon, in the test on NCI-H226 lung, in the test on NCI-H23 lung and in the test with NCI-H522 lung was greater than 100 µM throughout. Moreover, the TGI with OVCAR-4 ovarian, in the test on OVCAR-8 ovarian, in the test with U251 CNS and in the test on UACC-62 melanoma was greater than 100 µM throughout.

`COc1ccccc1NC(=O)N/C(N)=N/c1nc2ccccc2s1`: the GI50 with A498 renal is 0.24 µM; with A549 NSCLC it was 0.107 µM; in the test on HCC-2998 colon it was 0.375 µM; in the test with NCI-H226 lung, 0.949 µM; in the test on NCI-H23 lung it was 0.15 µM; in the test on NCI-H522 lung, 0.025 µM. The GI50 in the test with OVCAR-4 ovarian is 0.218 µM; with OVCAR-8 ovarian it was 0.262 µM; with U251 CNS, 0.0655 µM; with UACC-62 melanoma it was 0.0647 µM. Besides, the TGI with A498 renal, with A549 NSCLC, in the test on HCC-2998 colon, with NCI-H226 lung, with NCI-H23 lung and in the test on OVCAR-4 ovarian was greater than 100 µM in each case. The TGI in the test with OVCAR-8 ovarian, in the test on U251 CNS and in the test with UACC-62 melanoma was greater than 100 µM each time.

For the compound `COc1ccc(S(=O)(=O)N2CCCCC2)cc1NC(=O)c1[nH]c(C)c2c1CCCCC2=O`, the GI50 in the test on A498 renal was 1.08 µM; in the test with A549 NSCLC, 2.26 µM; in the test with HCC-2998 colon, 1.73 µM; with NCI-H226 lung, 1.27 µM; with NCI-H23 lung it was 3.11 µM; in the test with NCI-H522 lung, 0.374 µM. The GI50 with OVCAR-4 ovarian was 2.11 µM; in the test on OVCAR-8 ovarian, 2.19 µM; with U251 CNS it was 2.29 µM; in the test with UACC-62 melanoma, 0.356 µM. The TGI was 3.98 µM with A498 renal; 15 µM in the test with A549 NSCLC; 11.1 µM in the test with HCC-2998 colon; 34.7 µM in the test on NCI-H226 lung; greater than 100 µM with NCI-H23 lung; 7.73 µM with NCI-H522 lung. Further, the TGI was greater than 100 µM with OVCAR-4 ovarian, 46.6 µM in the test with OVCAR-8 ovarian, 70.4 µM in the test with U251 CNS and 7.74 µM with UACC-62 melanoma.

With `Cc1occc1C(=S)Nc1ccc(Cl)c(C(=O)OCC2CC2)c1`, the TGI in the test on A498 renal, in the test with A549 NSCLC, in the test with HCC-2998 colon, with NCI-H226 lung, with NCI-H23 lung and in the test with NCI-H522 lung was greater than 100 µM throughout. Besides, the TGI with OVCAR-4 ovarian, with OVCAR-8 ovarian, in the test with U251 CNS and with UACC-62 melanoma was greater than 100 µM each time.

Regarding `CN1CCN(c2ccc3nc(-c4ccc5nc(-c6ccc(C(F)(F)F)cc6)[nH]c5c4)[nH]c3c2)CC1`, the GI50 with A498 renal is 10.7 µM; in the test on A549 NSCLC it was 1.94 µM; in the test with HCC-2998 colon it was 1.98 µM; with NCI-H226 lung, 9.59 µM; in the test on NCI-H23 lung it was 1.71 µM; with NCI-H522 lung it was 1.47 µM. The GI50 was 1.74 µM in the test on OVCAR-4 ovarian, 2.02 µM with OVCAR-8 ovarian, 1.62 µM with U251 CNS and 1.58 µM in the test with UACC-62 melanoma. For the same compound, the TGI is 29.6 µM in the test on A498 renal; 3.91 µM in the test with A549 NSCLC; 3.57 µM in the test with HCC-2998 colon; 29.9 µM in the test with NCI-H226 lung; 3.5 µM in the test on NCI-H23 lung; 3.39 µM in the test on NCI-H522 lung. The TGI in the test on OVCAR-4 ovarian turned out to be 3.45 µM; in the test with OVCAR-8 ovarian, 4.7 µM; in the test with U251 CNS, 3.04 µM; with UACC-62 melanoma, 3.05 µM.

For `O=C(/C=C/c1ccccc1)c1ccc(O)c(CN2CCN(c3cc4c(cc3F)c(=O)c(C(=O)O)cn4C3CC3)CC2)c1`, the GI50 is 0.941 µM with A498 renal; 3.17 µM in the test with A549 NSCLC; 3.11 µM with HCC-2998 colon; 3.54 µM in the test with NCI-H226 lung; 2.2 µM in the test on NCI-H23 lung; 2.42 µM with NCI-H522 lung. Besides, the GI50 in the test with OVCAR-4 ovarian was 16.7 µM; in the test with OVCAR-8 ovarian, 0.592 µM; with U251 CNS, 0.389 µM; with UACC-62 melanoma, 1.67 µM. Also, the TGI in the test with A498 renal was 4.93 µM; in the test on A549 NSCLC, greater than 100 µM; with HCC-2998 colon it was 53.6 µM; with NCI-H226 lung it was greater than 100 µM; in the test with NCI-H23 lung it was 16.9 µM; in the test on NCI-H522 lung, greater than 100 µM. For the same compound, the TGI in the test on OVCAR-4 ovarian, in the test on OVCAR-8 ovarian, in the test with U251 CNS and in the test with UACC-62 melanoma was greater than 100 µM in each case.
